Assay results as given in publication PMC7768359, “Synthesis of Platinum(II) Complexes with Some 1-Methylnitropyrazoles and In Vitro Research on Their Cytotoxic Activity” (Pharmaceuticals, 2020).

What was measured:
MCF-7 cells = assay: Total cellular platinum uptake (ICP OES); format: cell-based, human; conditions: MCF-7, 4 h exposure, 10 µM
Description: It is necessary to strongly emphasize that the underlined values have a statistically significant lack of variance homogeneity (Fisher–Snedecor’s F-test, Fα/2) with respect to reference drug variance, so Aspin–Welch’s t-test was applied in these cases. […] For ionic compound 8, platinum uptake value was not determined due to Pt concentrations in the cell lysates being below the instrument detection limit (IDL = 10 μg/kg) specified by the manufacturer for the device used.
Cultured MCF-7 cells were seeded at a density of 4 × 10^5 cells/well of culture medium on a 6-well plate (Corning, NY, USA) to a final volume of 2.5 mL. […] The wells without MCF-7 cells were filled with 1 mL of culture medium-containing compound tested to act as a reference for nonspecific platinum complex adsorption on the surface of the well. After incubation, all wells were washed twice with 2 mL of cold PBS, filled with 400 μL of hot (ca 90 °C) 65% nitric acid, and maintained to stand for 2 h. All wells were finally filled with 1600 μL of water and this solution was collected and analyzed using iCAP 7400 Duo ICP OES instrument (Thermo Fisher Scientific) using the plasma axial view (10 s) at λ = 265.945 nm. The amount of Pt per cell was calculated by subtracting the amount of Pt found in the blank well from the amount of Pt found in the cell-containing wells and normalized to the average number of cells per well. The mean and SD values were calculated on the basis of 4 measurements.

[1] = system: A549 (lung adenocarcinoma); assay: In vitro cytotoxicity, sulforhodamine B assay; format: cell-based, human; conditions: 72 h
Description: (§1) Determination of the cytotoxic activity of compounds tested was performed separately in the normoxia or hypoxia conditions to reveal their potentially bioreductive properties. The experiment was carried out on three human cancer cell lines: MCF-7 breast, ES-2 ovarian and A549 lung adenocarcinoma as well as normal murine embryonic fibroblast BALB/3T3 cell line. In order to facilitate the preparation of solutions of the tested compounds, their initial solutions for dilution were made by dissolving the compounds in acetone. For this purpose, it was not possible to use more polar aprotic solvents (DMSO, DMF) due to the rapid isomerization of some of the tested complexes under their influence.
(§2) All the cell lines were cultured at 37 °C in a humid atmosphere containing 5% CO2. Additionally, in the case of cytotoxicity assay with hypoxic conditions, the cells (MCF-7, ES-2, A549) were maintained at 37 °C in a humid atmosphere containing 5% CO2 and 1% O2 during the entire experiment.
(§3) Twenty-four hours before adding the tested compounds, all cell lines were seeded in 96-well plates ([…] AG & Co, Nümbrecht Germany) in an appropriate media with 10^4 cells per well. All cell lines were exposed to each compound tested at four different concentrations for 72 h. […] Additionally, all cell lines were exposed to acetone (Avantor Performance Materials, Gliwice, Poland) (the solvent used for tested compounds) at concentrations corresponding to those present in tested compounds’ dilutions.
(§4) After 72 h of cell incubation with the compounds tested, the sulforhodamine B (SRB) assay was performed as described by Shekan et al. with minor modifications. The cells were fixed in situ by adding 50 µL per well of cold 50% trichloroacetic acid (Avantor Performance Materials, Gliwice, Poland) and were incubated at 4 °C for one hour. Following that, wells were washed five times with water and air dried. Next, 50 µL of 0.4% solution of sulforhodamine B (Sigma-Aldrich, Steinheim, Germany) in 1% acetic acid (Avantor Performance Materials, Gliwice, Poland) were added to each well and plates were incubated at room temperature for 0.5 h. After incubation time, the unbound dye was removed by washing plates five times with 1% acetic acid, whereas stains bound to cells was solubilized with 10 mM Tris base (Sigma-Aldrich, Steinheim, Germany). The absorbance of each solution was read by the Multiskan RC photometer (Labsystems Diagnostics Oy, Vantaa, Finland) at a 540 nm wavelength. Results are presented as mean IC50 (concentration of the compound tested that inhibits cell proliferation by 50%) ± standard deviation. IC50 values were calculated for each experiment on the basis of four different concentrations using Cheburator software, as described by Nevozhay. The tested compounds at each concentration were tested in triplicates in a single experiment and each experiment was repeated at least three times independently.

[2] = system: ES-2 (ovarian adenocarcinoma); assay: In vitro cytotoxicity, sulforhodamine B assay; format: cell-based, human; conditions: 72 h
Description: as §1, §2, §3, §4

[3] = system: MCF-7 (breast adenocarcinoma); assay: In vitro cytotoxicity, sulforhodamine B assay; format: cell-based, human; conditions: 72 h
Description: as §1, §2, §3, §4

[4] = system: BALB/3T3 (murine embryonic fibroblast); assay: In vitro cytotoxicity, sulforhodamine B assay, normal cells; format: cell-based; conditions: BALB/3T3 normal cells, normoxia, 72 h
Description: Determination of the cytotoxic activity of compounds tested was performed separately in the normoxia or hypoxia conditions to reveal their potentially bioreductive properties. The experiment was carried out on three human cancer cell lines: MCF-7 breast, ES-2 ovarian and A549 lung adenocarcinoma as well as normal murine embryonic fibroblast BALB/3T3 cell line. In order to facilitate the preparation of solutions of the tested compounds, their initial solutions for dilution were made by dissolving the compounds in acetone.
All cell lines were exposed to each compound tested at four different concentrations for 72 h. […] Additionally, all cell lines were exposed to acetone (Avantor Performance Materials, Gliwice, Poland) (the solvent used for tested compounds) at concentrations corresponding to those present in tested compounds’ dilutions.
as §4, with “Results are presented as mean IC50 (concentration of the compound tested that inhibits cell proliferation by 50%) ± standard deviation.” left out

[5] = logP by shake-flask method (n-octanol / 0.9% NaCl, Pt by ICP-OES); format: physicochemical; conditions: octanol/water, n = 4
Description: An important factor for the pharmacokinetics and the cellular accumulation of the investigated complexes, their lipophilicity was determined by measuring octanol/water partition coefficients (logP) with the shake-flask method. The logP determination was carried out based on a previously described procedure, modified by us to obtain more accurate and repeatable results.
Weighted amounts of the tested platinum complex were suspended by 10 min sonification in 0.9% NaCl water solution, which was previously saturated with n-octanol, and mixed by shaking for 1 h. A simultaneously similar procedure was performed using 5 mL of n-octanol pre-saturated with 0.9% NaCl. Afterward, both suspensions were mixed together, shaken for an additional 1 h, and centrifuged for 5 min. After phase separation and evaporation in vacuo of 1 mL of sample to dryness, the final concentration of Pt was determined by ICP-OES (λ = 265.945 nm) and the partition coefficients were calculated. For the analysis, all samples were dissolved 1:1000 in 2.5% HCl. Each measurement was repeated four times and the final logP was calculated as the arithmetic mean of the four values.

[6] = parameters: method as in PMID 18777181; conditions: cited from earlier work

| Compound | Total Cellular Platinum Uptake in MCF-7 Cells (± SD) (MCF-7 cells) | IC50 ([1]; A549, hypoxia (1% O2)) | IC50 ([1]; A549, normoxia) | IC50 ([2]; ES-2, hypoxia (1% O2)) | IC50 ([2]; ES-2, normoxia) | IC50 ([3]; MCF-7, hypoxia (1% O2)) | IC50 ([3]; MCF-7, normoxia) | IC50 [4] | logP ± SD [5] | IC50 ± SD ([1]; A549, hypoxia (1% O2)) | IC50 ± SD ([2]; ES-2, hypoxia (1% O2)) | IC50 ± SD ([3]; MCF-7, hypoxia (1% O2)) | IC50 ± SD ([1]; A549, normoxia) | IC50 ± SD ([2]; ES-2, normoxia) | IC50 ± SD ([3]; MCF-7, normoxia) | IC50 ([4]; Mus musculus) | half-time of the reaction with GSH [6] |
| --- | --- | --- | --- | --- | --- | --- | --- | --- | --- | --- | --- | --- | --- | --- | --- | --- | --- |
| N.N.[Cl][Pt][Cl] [Cisplatin, cisplatin, reference compound] | 74 ± 20 ng Pt/10^6 Cells | 23.9 ± 9.3 µM | 9.8 ± 1.2 µM | 13.7 ± 5.7 µM | 8.6 ± 2.6 µM | 14.7 ± 5.8 µM | 12.6 ± 2.6 µM | 8.67 ± 2.6 µM |  |  |  |  |  |  |  |  |  |
| Cc1c([N+](=O)[O-])cn(C)[n+]1[Pt@SP2-2]([Cl])([Cl])[n+]1c(C)c([N+](=O)[O-])cn1C [Compound 7, cis-dichloridobis(1,3-dimethyl-4-nitropyrazole)platinum(II)] | 16 ± 7 ng Pt/10^6 Cells |  | 93 ± 12.9 µM |  | 68.9 ± 10 µM |  | 58 ± 8.7 µM | > 100 µM | −0.69 ± 0.04 | inactive | inactive | inactive |  |  |  |  |  |
| COC(=O)c1c([N+](=O)[O-])c[n+]([Pt@SP3-2]([Cl])([Cl])[n+]2cc([N+](=O)[O-])c(C(=O)OC)n2C)n1C [Compound 6, trans-dichloridobis(methyl 1-methyl-4-nitropyrazole-5-carboxylate)platinum(II)] | 47 ± 17 ng Pt/10^6 Cells |  | 58.2 ± 7.6 µM | 99.8 ± 37.9 µM | 36.3 ± 8.6 µM | 86.8 ± 19 µM | 23.6 ± 8.6 µM | > 100 µM | −0.37 ± 0.03 | inactive |  |  |  |  |  |  |  |
| COC(=O)c1c([N+](=O)[O-])c[n+]([Pt@SP2-2]([Cl])([Cl])[n+]2cc([N+](=O)[O-])c(C(=O)OC)n2C)n1C [Compound 5, cis-dichloridobis(methyl 1-methyl-4-nitropyrazole-5-carboxylate)platinum(II)] | 39 ± 3 ng Pt/10^6 Cells |  |  |  | 38.1 ± 9.2 µM |  | 49.1 ± 30.1 µM | > 100 µM | −0.58 ± 0.13 | inactive | inactive | inactive | inactive |  |  |  |  |
| Cn1cc([N+](=O)[O-])cn1 [1-Methyl-4-nitropyrazole, 1-methyl-4-nitropyrazole, reference compound] |  |  |  |  |  |  |  |  |  | inactive | inactive | inactive | inactive | inactive | inactive | > 100 µM |  |
| COC(=O)c1c([N+](=O)[O-])cn(C)[n+]1[Pt-2]([Cl])([Cl])[Cl].[K+] [Compound 8, potassium trichlorido(3-carboxymethyl-1-methyl-4-nitropirazole)platinate(II)] | ^† below IDL |  |  |  | 48.5 ± 25.9 µM |  |  | > 100 µM | −1.22 ± 0.08 | inactive | inactive | inactive | inactive |  | inactive |  |  |
| N.N.[Cl][Pt+2][Cl] [transplatin] |  |  |  |  |  |  |  |  |  |  |  |  |  |  |  |  | 4 min |
